Experimental data reported in article PMC12624743 (ACS Infectious Diseases, 2025).
In brackets after ≈: the same amount, converted by molar mass.

What was measured:
[1] = target: T1, N. gonorrhoeae topoisomerase IV ParC^D86N (Neisseria gonorrhoeae, UniProt P48374, D86N); experiment: Topoisomerase IV-catalyzed DNA decatenation assay, ParC^D86N; format: biochemical
T1 construct: His; made in house
T1 sequence (P48374 1-768 D86N): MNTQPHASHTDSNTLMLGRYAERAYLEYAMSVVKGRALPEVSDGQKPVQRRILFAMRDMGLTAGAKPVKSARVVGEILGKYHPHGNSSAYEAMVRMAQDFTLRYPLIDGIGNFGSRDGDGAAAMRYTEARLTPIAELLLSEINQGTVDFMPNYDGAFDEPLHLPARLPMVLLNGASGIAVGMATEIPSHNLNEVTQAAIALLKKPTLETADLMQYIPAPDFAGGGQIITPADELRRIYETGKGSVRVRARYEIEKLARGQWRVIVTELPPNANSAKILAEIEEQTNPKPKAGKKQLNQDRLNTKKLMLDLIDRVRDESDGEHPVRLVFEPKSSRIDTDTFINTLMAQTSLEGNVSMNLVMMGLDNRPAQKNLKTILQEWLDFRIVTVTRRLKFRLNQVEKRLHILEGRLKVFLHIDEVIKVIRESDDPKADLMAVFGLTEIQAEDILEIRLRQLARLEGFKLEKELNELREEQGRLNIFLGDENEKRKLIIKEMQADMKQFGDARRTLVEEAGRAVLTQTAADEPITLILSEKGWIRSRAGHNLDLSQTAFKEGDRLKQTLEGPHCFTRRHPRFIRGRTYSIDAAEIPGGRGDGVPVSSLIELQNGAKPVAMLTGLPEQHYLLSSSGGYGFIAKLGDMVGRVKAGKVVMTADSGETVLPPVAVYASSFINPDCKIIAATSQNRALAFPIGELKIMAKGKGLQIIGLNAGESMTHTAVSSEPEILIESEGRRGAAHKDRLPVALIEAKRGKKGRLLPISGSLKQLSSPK
Procedure: All proteins were His-tagged. N. gonorrhoeae WT gyrase (GyrA, GyrB) and topoisomerase IV (ParC, ParE) subunits as well as mutant GyrA^D90N, GyrA^A92T, GyrA^S91F, and GyrA^S91F/D95G gyrase and ParC^D86N and ParC^S88P topoisomerase IV were prepared as described previously. , N. gonorrhoeae mutant GyrA^D95G gyrase and mutant ParC^S87N and ParC^E91G topoisomerase IV were generated using a QuickChange II XL site-directed mutagenesis kit (Agilent Technologies) with custom primers for the desired mutations. Mutant N. gonorrhoeae GyrA and ParC subunits were expressed and purified as described by Ashley et al. with the following modifications to optimize protein expression and lysis: (1) GyrA^D95G was expressed for 2.5 h and ParC^S87N and ParC^E91G were expressed for 3 h before harvesting, and (2) cells were lysed by sonication using a digital sonifier (Branson). The identities of all constructs were confirmed by DNA sequencing, and all enzymes were stored at −80 °C. In all assays, N. gonorrhoeae gyrase or topoisomerase IV was used as a 1:1 GyrA:GyrB or ParC:ParE mixture, respectively, and the stated enzyme concentration reflects that of the holoenzyme (A2B2). […]

[2] = tested on: N. gonorrhoeae FA1090E (GyrA^WT/ParC^WT, efflux mutant); experiment: MIC by agar dilution, WT/WT efflux-mutant parental strain; format: cell-based; conditions: Neisseria gonorrhoeae, 48 h
Procedure: Mutations in these efflux genes can result in increased efflux to multiple antibiotics. […] Parental and isogenic mutant strains generated that carried the efflux mutations mtrR-79 and norM ΔT T6 were designated as FA1090E (E for efflux positive). Only the additional GyrA and ParC genotypes are described in Table and in the text. The mutant that additionally expressed ParC^D86N was named FA1090E-2.
(§1) Minimum inhibitory concentration (MIC) of test compounds was determined by an agar dilution method, the reference testing method for N. gonorrhoeae according to the standards of the Clinical and Laboratory Standards Institute and the CDC.

[3] = target: T2, N. gonorrhoeae gyrase GyrA^S91F (Neisseria gonorrhoeae, UniProt P48371, S91F); experiment: DNA cleavage assay, GyrA^S91F gyrase; format: biochemical
T2 construct: His; made in house
Procedure: (§2) Some experiments replaced MgCl2 with an equivalent concentration of CaCl2 (10 mM), or 1.5 mM ATP was added to assay mixtures.
(§3) Reactions were incubated at 37 °C for 30 min with WT and mutant (GyrA^D90N, GyrA^A92T, GyrA^S91F, GyrA^D95G, or GyrA^S91F/D95G) N. gonorrhoeae gyrase, 10 min with WT N. gonorrhoeae topoisomerase IV, and 20 min with mutant (ParC^D86N, ParC^S88P, ParC^S87N, or ParC^E91G) N. gonorrhoeae topoisomerase IV. Enzyme-DNA cleavage complexes were trapped by adding 2 μL of 5% SDS followed by 2 μL of 250 mM EDTA (pH 8.0). Proteinase K was added (2 μL of a 0.8 mg/mL solution), and reaction mixtures were incubated at 45 °C for 30 min to digest the enzyme. Samples were mixed with 2 μL of loading buffer and heated at 45 °C for 2 min prior to electrophoresis in 1% agarose gels in 40 mM Tris-acetate (pH 8.3), and 2 mM EDTA containing 0.5 μg/mL ethidium bromide. DNA bands were visualized by midrange ultraviolet light and quantified using an Alpha Innotech digital imaging system (Protein Simple). Single-stranded DNA cleavage was monitored by the conversion of negatively supercoiled to nicked plasmid molecules.

WT N. gonorrhoeae gyrase = target: T3, WT N. gonorrhoeae gyrase (Neisseria gonorrhoeae, UniProt P48371); experiment: DNA cleavage assay, WT gyrase; format: biochemical
T3 construct: His; made in house
Procedure: as §2, §3

[4] = tested on: N. gonorrhoeae FA1090-Q1 (GyrA^S91F/D95G, ParC WT); experiment: MIC by agar dilution, fluoroquinolone-resistant GyrA^S91F/D95G strain; format: cell-based; conditions: Neisseria gonorrhoeae
Procedure: as §1

T3 sequence (P48371 whole entry): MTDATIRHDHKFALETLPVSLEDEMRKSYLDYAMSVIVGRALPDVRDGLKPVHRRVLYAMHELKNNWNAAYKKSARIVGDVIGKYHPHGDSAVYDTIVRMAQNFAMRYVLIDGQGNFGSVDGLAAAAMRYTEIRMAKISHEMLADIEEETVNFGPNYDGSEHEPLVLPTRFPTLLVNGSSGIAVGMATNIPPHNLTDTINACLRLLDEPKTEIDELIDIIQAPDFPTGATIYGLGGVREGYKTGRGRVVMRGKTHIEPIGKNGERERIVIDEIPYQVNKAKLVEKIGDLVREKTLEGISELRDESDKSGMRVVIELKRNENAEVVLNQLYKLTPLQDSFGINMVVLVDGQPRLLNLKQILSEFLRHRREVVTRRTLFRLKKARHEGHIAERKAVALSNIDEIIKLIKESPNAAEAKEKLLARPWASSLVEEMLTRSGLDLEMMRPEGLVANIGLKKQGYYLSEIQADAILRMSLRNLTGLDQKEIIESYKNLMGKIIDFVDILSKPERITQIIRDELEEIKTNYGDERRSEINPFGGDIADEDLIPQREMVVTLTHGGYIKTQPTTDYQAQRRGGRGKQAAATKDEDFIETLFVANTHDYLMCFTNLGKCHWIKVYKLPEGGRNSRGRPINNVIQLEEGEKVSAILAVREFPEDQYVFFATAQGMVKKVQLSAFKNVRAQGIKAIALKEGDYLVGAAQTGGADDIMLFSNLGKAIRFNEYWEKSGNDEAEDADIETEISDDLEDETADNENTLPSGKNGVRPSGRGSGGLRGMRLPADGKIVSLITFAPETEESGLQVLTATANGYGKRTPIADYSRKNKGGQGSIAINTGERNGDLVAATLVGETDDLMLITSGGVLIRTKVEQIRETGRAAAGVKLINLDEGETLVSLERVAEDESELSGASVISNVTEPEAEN
T3 sequence (P22118 whole entry partner): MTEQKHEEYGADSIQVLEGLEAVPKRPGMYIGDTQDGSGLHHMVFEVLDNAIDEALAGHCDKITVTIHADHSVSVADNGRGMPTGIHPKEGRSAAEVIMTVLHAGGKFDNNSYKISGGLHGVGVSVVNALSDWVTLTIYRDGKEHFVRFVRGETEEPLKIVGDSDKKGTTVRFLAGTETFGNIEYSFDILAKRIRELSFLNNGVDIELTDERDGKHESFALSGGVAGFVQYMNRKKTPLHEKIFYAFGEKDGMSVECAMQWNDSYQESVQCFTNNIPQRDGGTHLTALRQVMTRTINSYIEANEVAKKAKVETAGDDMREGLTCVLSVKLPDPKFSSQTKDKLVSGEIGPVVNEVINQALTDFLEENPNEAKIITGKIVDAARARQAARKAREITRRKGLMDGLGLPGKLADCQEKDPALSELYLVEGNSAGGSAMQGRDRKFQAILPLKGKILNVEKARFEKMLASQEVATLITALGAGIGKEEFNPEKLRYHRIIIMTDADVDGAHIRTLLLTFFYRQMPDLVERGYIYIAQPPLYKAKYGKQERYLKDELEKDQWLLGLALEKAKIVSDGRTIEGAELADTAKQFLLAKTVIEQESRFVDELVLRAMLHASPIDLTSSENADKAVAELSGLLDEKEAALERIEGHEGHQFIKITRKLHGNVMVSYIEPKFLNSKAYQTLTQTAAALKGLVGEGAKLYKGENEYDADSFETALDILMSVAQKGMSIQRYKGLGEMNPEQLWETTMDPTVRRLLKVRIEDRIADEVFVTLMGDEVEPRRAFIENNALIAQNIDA
T2 sequence (P48371 whole entry S91F): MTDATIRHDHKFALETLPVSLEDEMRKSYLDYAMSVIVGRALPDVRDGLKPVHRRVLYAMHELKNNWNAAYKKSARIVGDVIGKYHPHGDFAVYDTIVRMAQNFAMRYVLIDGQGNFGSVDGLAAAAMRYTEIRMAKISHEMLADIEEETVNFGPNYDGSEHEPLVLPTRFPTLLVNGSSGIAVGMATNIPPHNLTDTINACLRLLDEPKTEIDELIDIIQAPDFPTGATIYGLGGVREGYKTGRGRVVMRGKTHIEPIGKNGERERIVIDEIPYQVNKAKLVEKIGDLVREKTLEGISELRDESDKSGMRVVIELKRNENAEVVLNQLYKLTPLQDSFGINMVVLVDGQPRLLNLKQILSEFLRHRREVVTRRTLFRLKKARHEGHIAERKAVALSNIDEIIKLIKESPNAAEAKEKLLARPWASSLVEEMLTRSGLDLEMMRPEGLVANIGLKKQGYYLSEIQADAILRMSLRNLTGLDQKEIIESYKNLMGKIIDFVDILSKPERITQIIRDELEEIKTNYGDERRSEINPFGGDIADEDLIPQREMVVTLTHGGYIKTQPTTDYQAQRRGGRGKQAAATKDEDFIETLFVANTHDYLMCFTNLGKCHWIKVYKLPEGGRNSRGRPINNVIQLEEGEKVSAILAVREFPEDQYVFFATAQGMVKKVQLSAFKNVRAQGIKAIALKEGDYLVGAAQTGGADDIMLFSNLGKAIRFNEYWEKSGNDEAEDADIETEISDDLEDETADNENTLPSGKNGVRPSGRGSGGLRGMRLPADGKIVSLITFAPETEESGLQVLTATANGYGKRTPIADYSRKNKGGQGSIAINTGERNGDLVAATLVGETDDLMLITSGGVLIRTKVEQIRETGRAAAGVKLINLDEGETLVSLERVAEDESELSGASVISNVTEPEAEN
T2 sequence (P22118 whole entry partner): as the sequence (P22118 whole entry partner) above

What does the source list for `O=c1ccc2ncc(=O)n3c2n1C[C@H]3CN1CCC(NCc2cc3c(cn2)OCCC3)CC1` [gepotidacin]?
IC50 ([1]; ParC D86N topoisomerase IV, read-out: IC50, inhibition of DNA decatenation): > 200 µM; inhibition of DNA decatenation ([1]; ParC D86N, gepotidacin concentrations as high as 200 μM): no inhibition; MIC [2]: 0.5 µg/mL (≈ 1.11 µM); Adj-Max Cleavage, single-stranded DNA breaks [3]: 5.5%; EC50 ([3]; GyrA S91F gyrase, read-out: CC50, single-stranded DNA cleavage): 17.2 µM; fold decrease of adjusted maximal DNA cleavage vs WT ([3]; GyrA S91F vs WT): ~3.1 fold; effect of ATP on potency and maximal DNA cleavage (WT N. gonorrhoeae gyrase; 1.5 mM ATP): little effect; effect on double-stranded DNA scission (WT N. gonorrhoeae gyrase; Mg2+ replaced with Ca2+): little effect; EC50 (WT N. gonorrhoeae gyrase; Mg2+, no ATP, read-out: CC50, single-stranded DNA cleavage): 0.9 ± 0.3 µM; Adj-Max Cleavage, single-stranded DNA breaks (WT N. gonorrhoeae gyrase; adjusted for baseline cleavage): ~17.1%; additional enhancement of double-stranded DNA breaks above baseline (WT N. gonorrhoeae gyrase; up to 200 μM gepotidacin, up to 180 min): not observed; MIC [4]: 0.125 µg/mL (≈ 0.279 µM)
